For 24 compounds, EC50 and CC50 results are on record in patent publication US10875876B2, “Cyclized sulfamoylarylamide derivatives and the use thereof as medicaments for the treatment of hepatitis B” (priority 2015, dated 2020).

The test system of one data set is HBV. In words: anti HBV activity, HepG2.117 cell line, intracellular HBV DNA by realtime PCR. Format: cell-based. The note with it: HepG2.117 cell line (Tet-off), 3 days of treatment, intracellular HBV DNA quantified by realtime PCR; read-out: HBV-AVE-HepG2.117 EC50. In outline: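 HepG2.117 cells, a Tet-off line that replicates HBV without doxycycline, were induced and then treated in duplicate with serially diluted compound. After 3 days, intracellular HBV DNA was quantified by real-time PCR with an HBV-specific primer set and probe.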

In another data set the test system is HepG2 cells. In words: Cytotoxicity in HepG2 cells, Resazurin assay. The following applies: read-out: TOX-HepG2-4 d CC50; HepG2 cells incubated for 4 days, viability by Resazurin assay. Background: The colour change of resazurin is a common sign of viable cells or microbes.

Turning to `Cn1cc2c(c1C(=O)Nc1ccc(F)c(F)c1)OCC(C)(Cc1cccnc1)NS2(=O)=O` (single isomer, unassigned) [Compound 199b, N-(3,4-difluorophenyl)-3,7-dimethyl-1,1-dioxo-3-(3-pyridylmethyl)-2,4-dihydropyrrolo[3,4-b][1,4,5]oxathiazepine-6-carboxamide], the half-maximal effective concentration (EC50) (usually the concentration that produces a half-maximal response) in the data set with HBV was 8 nM. Also, the 50% cytotoxic concentration (CC50) (commonly the concentration at which the toxic effect on the cells reaches its halfway point) with HepG2 cells was over 25000 nM.
On to `Cn1cc2c(c1C(=O)Nc1ccc(F)c(F)c1)OCC(C)(CO)NS2(=O)=O` (single isomer, unassigned) [Compound 203b, N-(3,4-difluorophenyl)-3-(hydroxymethyl)-3,7-dimethyl-1,1-dioxo-2,4-dihydropyrrolo[3,4-b][1,4,5]oxathiazepine-6-carboxamide], for which the concentration giving a half-maximal response (EC50) in the data set with HBV was 59 nM. In addition, in the data set with HepG2 cells, the CC50 was over 25000 nM.
Regarding `Cn1cc2c(c1C(=O)Nc1ccnc(Cl)c1)OCC(C)(CO)NS2(=O)=O` (single isomer, unassigned) [Compound 204b, N-(2-chloro-4-pyridyl)-3-(hydroxymethyl)-3,7-dimethyl-1,1-dioxo-2,4-dihydropyrrolo[3,4-b][1,4,5]oxathiazepine-6-carboxamide], the 50% effective concentration (EC50) with HBV is over 125 nM. Besides, the cytotoxic concentration (CC50) in the data set with HepG2 cells was over 25000 nM.
Regarding `Cc1cc(NC(=O)c2c3c(cn2C)S(=O)(=O)N[C@@H](C(O)C2CC2)CO3)ccc1F` (single isomer, unassigned) [Compound 206b, 3-[cyclopropyl(hydroxy)methyl]-N-(4-fluoro-3-methyl-phenyl)-7-methyl-1,1-dioxo-3,4-dihydro-2H-pyrrolo[3,4-b][1,4,5]oxathiazepine-6-carboxamide], the concentration giving a half-maximal response (EC50) with HBV turned out to be 12 nM. For the same compound, the CC50 in the data set on HepG2 cells is over 25000 nM.
For `Cn1cc2c(c1C(=O)Nc1ccc(F)c(Cl)c1)OC[C@H](C(O)C1CC1)NS2(=O)=O` (single isomer, unassigned) [Compound 207b, N-(3-chloro-4-fluoro-phenyl)-3-[cyclopropyl(hydroxy)methyl]-7-methyl-1,1-dioxo-3,4-dihydro-2H-pyrrolo[3,4-b][1,4,5]oxathiazepine-6-carboxamide], the concentration giving a half-maximal response (EC50) with HBV stood at 5 nM. Further, the CC50 with HepG2 cells was over 25000 nM.
With `Cn1cc2c(c1C(=O)Nc1cc(F)c(F)c(F)c1)OC[C@H](C(O)C1CC1)NS2(=O)=O` (single isomer, unassigned) [Compound 208b, 3-[cyclopropyl(hydroxy)methyl]-7-methyl-1,1-dioxo-N-(3,4,5-trifluorophenyl)-3,4-dihydro-2H-pyrrolo[3,4-b][1,4,5]oxathiazepine-6-carboxamide], in the data set with HBV, the EC50 is 11 nM. The half-maximal cytotoxic concentration (CC50) in the data set on HepG2 cells was over 25000 nM.
On the same counts, the results for `Cc1cc(CC2(C)COc3c(cn(C)c3C(=O)Nc3ccnc(C(F)F)c3)S(=O)(=O)N2)no1` (single isomer, unassigned) [Compound 209b, N-[2-(difluoromethyl)-4-pyridyl]-3,7-dimethyl-3-[(5-methylisoxazol-3-yl)methyl]-1,1-dioxo-2,4-dihydropyrrolo[3,4-b][1,4,5]oxathiazepine-6-carboxamide] are 18 nM and over 25000 nM.
On the same counts, the results for `Cn1cc2c(c1C(=O)Nc1ccc(F)c(C#N)c1)OCC(C)(CO)NS2(=O)=O` (single isomer, unassigned) [Compound 210b, N-(3-cyano-4-fluoro-phenyl)-3-(hydroxymethyl)-3,7-dimethyl-1,1-dioxo-2,4-dihydropyrrolo[3,4-b][1,4,5]oxathiazepine-6-carboxamide] are 34 nM and over 25000 nM.
On to `Cc1cc(CC2(C)COc3c(cn(C)c3C(=O)Nc3ccnc(Cl)c3)S(=O)(=O)N2)no1` (single isomer, unassigned) [Compound 213b, N-(2-chloro-4-pyridyl)-3,7-dimethyl-3-[(5-methylisoxazol-3-yl)methyl]-1,1-dioxo-2,4-dihydropyrrolo[3,4-b][1,4,5]oxathiazepine-6-carboxamide], for which, in the data set on HBV, the EC50 is 16 nM. Further, in the data set with HepG2 cells, the CC50 is over 25000 nM.
On the same counts, the results for `Cn1cc2c(c1C(=O)Nc1cc(F)c(F)c(F)c1)OCC(C)(CO)NS2(=O)=O` (single isomer, unassigned) [Compound 214b, 3-(hydroxymethyl)-3,7-dimethyl-1,1-dioxo-N-(3,4,5-trifluorophenyl)-2,4-dihydropyrrolo[3,4-b][1,4,5]oxathiazepine-6-carboxamide] are 22 nM and over 25000 nM.
For `Cn1cc2c(c1C(=O)Nc1ccnc(C(F)F)c1)OCC(C)(CO)NS2(=O)=O` (single isomer, unassigned) [Compound 215b, N-[2-(difluoromethyl)-4-pyridyl]-3-(hydroxymethyl)-3,7-dimethyl-1,1-dioxo-2,4-dihydropyrrolo[3,4-b][1,4,5]oxathiazepine-6-carboxamide], in that order: over 125 nM and over 25000 nM.
As for `Cn1ccc(CC2(C)COc3c(cn(C)c3C(=O)Nc3ccnc(C(F)F)c3)S(=O)(=O)N2)n1` (single isomer, unassigned) [Compound 217b, N-[2-(difluoromethyl)-4-pyridyl]-3,7-dimethyl-3-[(1-methylpyrazol-3-yl)methyl]-1,1-dioxo-2,4-dihydropyrrolo[3,4-b][1,4,5]oxathiazepine-6-carboxamide], the EC50 with HBV came out at 100 nM. The CC50 in the data set on HepG2 cells was over 25000 nM.
As to `CC(NCC(F)(F)F)C1CCc2c(cn(C)c2C(=O)Nc2cc(F)c(F)c(F)c2)S(=O)(=O)N1` (single isomer, unassigned) [Compound 218b, 7-methyl-1,1-dioxo-3-[1-(2,2,2-trifluoroethylamino)ethyl]-N-(3,4,5-trifluorophenyl)-2,3,4,5-tetrahydropyrrolo[3,4-f]thiazepine-6-carboxamide], in the data set with HBV, the EC50 worked out at 79 nM. Besides, the cytotoxic concentration (CC50) in the data set on HepG2 cells is over 25000 nM.
On the same counts, the results for `CC(NCC(F)(F)F)C1CCc2c(cn(C)c2C(=O)Nc2cc(F)c(F)c(F)c2)S(=O)(=O)N1` (single isomer, unassigned) [Compound 218d, 7-methyl-1,1-dioxo-3-[1-(2,2,2-trifluoroethylamino)ethyl]-N-(3,4,5-trifluorophenyl)-2,3,4,5-tetrahydropyrrolo[3,4-f]thiazepine-6-carboxamide] are 21 nM and over 25000 nM.
Take `Cc1cc(CC2(C)COc3c(cn(C)c3C(=O)Nc3ccc(F)c(C#N)c3)S(=O)(=O)N2)no1` (single isomer, unassigned) [Compound 220b, N-(3-cyano-4-fluoro-phenyl)-3,7-dimethyl-3-[(5-methylisoxazol-3-yl)methyl]-1,1-dioxo-2,4-dihydropyrrolo[3,4-b][1,4,5]oxathiazepine-6-carboxamide]: in the data set with HBV, the concentration for a half-maximal effect (EC50) worked out at 34 nM. In the data set on HepG2 cells, the CC50 was over 25000 nM.
As for `Cn1cc2c(c1C(=O)Nc1ccc(F)c(F)c1)OC[C@H](C(O)C1CC1)NS2(=O)=O` (stereo partly drawn) [Compound 105b, (3R)-3-[cyclopropyl(hydroxy)methyl]-N-(3,4-difluorophenyl)-7-methyl-1,1-dioxo-3,4-dihydro-2H-pyrrolo[3,4-b][1,4,5]oxathiazepine-6-carboxamide], the EC50 with HBV was 11 nM. In the data set with HepG2 cells, the CC50 is over 25000 nM.
On to `Cn1cc2c(c1C(=O)Nc1ccc(F)c(C(F)F)c1)OC[C@H](C(O)C1CC1)NS2(=O)=O` (stereo partly drawn) [Compound 115b, (3R)-3-[cyclopropyl(hydroxy)methyl]-N-[3-(difluoromethyl)-4-fluoro-phenyl]-7-methyl-1,1-dioxo-3,4-dihydro-2H-pyrrolo[3,4-b][1,4,5]oxathiazepine-6-carboxamide], for which the concentration for a half-maximal effect (EC50) with HBV was found to be 7 nM. In addition, the 50% cytotoxic concentration (CC50) with HepG2 cells was over 25000 nM.
In the case of `CC(C)C(O)C1COc2c(cn(C)c2C(=O)Nc2ccc(F)c(C#N)c2)S(=O)(=O)N1` (stereo not drawn) [Compound 119b, N-(3-cyano-4-fluoro-phenyl)-3-(1-hydroxy-2-methyl-propyl)-7-methyl-1,1-dioxo-3,4-dihydro-2H-pyrrolo[3,4-b][1,4,5]oxathiazepine-6-carboxamide], the EC50 in the data set with HBV was found to be 6 nM. Also, the half-maximal cytotoxic concentration (CC50) in the data set on HepG2 cells is over 25000 nM.
On the same counts, the results for `Cn1cc2c(c1C(=O)Nc1ccc(F)c(C#N)c1)OC[C@H](C(O)C1CC1)NS2(=O)=O` (stereo partly drawn) [Compound 120b, (3R)—N-(3-cyano-4-fluoro-phenyl)-3-[cyclopropyl(hydroxy)methyl]-7-methyl-1,1-dioxo-3,4-dihydro-2H-pyrrolo[3,4-b][1,4,5]oxathiazepine-6-carboxamide] are 11 nM and over 25000 nM.
For `CCC(O)[C@H]1COc2c(cn(C)c2C(=O)Nc2ccc(F)c(C#N)c2)S(=O)(=O)N1` (stereo partly drawn) [Compound 122b, (3R)—N-(3-cyano-4-fluoro-phenyl)-3-(1-hydroxypropyl)-7-methyl-1,1-dioxo-3,4-dihydro-2H-pyrrolo[3,4-b][1,4,5]oxathiazepine-6-carboxamide], in that order: 9 nM and over 25000 nM.
For the compound `CCC(O)[C@H]1COc2c(cn(C)c2C(=O)Nc2ccc(F)c(C(F)F)c2)S(=O)(=O)N1` (stereo partly drawn) [Compound 124b, (3R)—N-[3-(difluoromethyl)-4-fluoro-phenyl]-3-(1-hydroxypropyl)-7-methyl-1,1-dioxo-3,4-dihydro-2H-pyrrolo[3,4-b][1,4,5]oxathiazepine-6-carboxamide], the EC50 in the data set with HBV was 4 nM. In the data set on HepG2 cells, the cytotoxic concentration (CC50) is over 25000 nM.
As to `CCC(O)[C@H]1COc2c(cn(C)c2C(=O)Nc2ccc(F)c(F)c2)S(=O)(=O)N1` (stereo partly drawn) [Compound 130b, (3R)—N-(3,4-difluorophenyl)-3-(1-hydroxypropyl)-7-methyl-1,1-dioxo-3,4-dihydro-2H-pyrrolo[3,4-b][1,4,5]oxathiazepine-6-carboxamide], in the data set with HBV, the EC50 is 12 nM. Further, the cytotoxic concentration (CC50) in the data set with HepG2 cells was over 25000 nM.
As for `C[C@@H]1NS(=O)(=O)c2cn(C)c(C(=O)Nc3ccc(F)c(F)c3)c2O[C@@H]1C` [compound 228], the concentration for a half-maximal effect (EC50) in the data set with HBV was over 500 nM. The CC50 in the data set on HepG2 cells is over 25000 nM.
On the same counts, the results for `C[C@@H]1Oc2c(cn(C)c2C(=O)Nc2ccc(F)c(C#N)c2)S(=O)(=O)N[C@@H]1CO` [compound 235] are over 500 nM and over 25000 nM.
